The values that follow come from US5496849A, “Sulfonic acid derivative and its pharmaceutical application” (Toray Industries, Inc., priority 1992, dated 1996).

Each structure is given as a SMILES string. pIC50: −log10 of the molar value.

The subject of test [1] is platelet aggregation induced by U-46619 in human platelet-rich plasma (PRP). In words: Platelet aggregation inhibitory action (U-46619-induced, human platelet-rich plasma). The following applies: compounds added 1 minute before U-46619, turbidity. Type of test: cell-based. The protocol: Human whole blood drawn from the median cubital vein was centrifuged for 10 minutes at 800 rpm, and the upper portion was collected as platelet-rich plasma (PRP). […] The size of the aggregates were measured with a platelet aggregate measuring instrument (Hematracer 1, Nikko Bioscience) as the change in turbidity. The compounds were added 1 minute before addition of U-46619, and the concentration which inhibits aggregation by 50% was calculated as the IC50 value.

Test [2] has as its system vasoconstriction of rat thoracic aorta induced by U-46619. Nature of the test: Vasoconstriction inhibitory action (U-46619-induced constriction of thoracic aorta spiral specimens). Further details: species or system long Evans rats. As to conditions: 10 min, pH 7.4, minimum concentration at which inhibition rate was 50% or more, 10 ng/ml U-46619, drug applied 10 minutes, 37° C., read-out: Vasoconstriction Inhibitory Action MIC. The protocol: Male and female long Evans rats having body weights of 150-200 g were used in this example. After sacrificing the animals by decapitation, the thoracic aorta was removed, and the outer membrane was peeled off to obtain I2 spiral specimens roughly 2 cm in length. Blood vessel specimens were warmed to 37° C. and preserved in a Magnus tube containing 10 ml of a nutrient solution aerated with 95% oxygen+5% carbon dioxide gas. The nutrient solution contained 118.3 mmol of NaCl, 4.7 mmol of KCl, […] of CaCl, 1.2 mmol of MgSO4, 1.2 mmol of KH2 PO4, 25 mmol of NaCHO3, 11.1 mmol of D-glucose, 0.03 mmol of EDTA along with 1 μg/ml each of atropin, phentolamine, mepiramine, cyproheptadine, propranolol and indometacin, and was adjusted to a pH of 7.4. Vasoconstriction was measured using an isometric transducer (Harward UF-1 Transducer and Sekonic SS-250F Graph recorder). An equilibration time of 3 hours was provided after the blood vessels were installed on the Magnus device, and fresh nutrient solution was replaced every 30 minutes during that time. […] of U-46619, having TXA2 action (to reach roughly 75% of maximum constriction), was applied for 30 minutes to constrict the vessels. The maximum stable constriction during this time was taken to be the control constriction (C1). Next, the blood vessels were washed several times with nutrient solution to remove the drug. After allowing a recovery period of 30 minutes, the test drugs were applied at various concentrations for 10 minutes followed by again constricting the vessels by applying 10 ng/ml of U-46619 for 30 minutes. The maximum stable constriction during this time was taken to be the constriction of the test drugs (C2). The inhibition rates of vasoconstriction induced by the drugs and U-46619 were determined according to the following formula, and the minimum concentration at which the inhibition rate was 50% or more was determined as the minimum inhibitory concentration (MIC).
((C1-C2)/C1)×100=Inhibition rate (%)

For test [3], the target named is T1, Thromboxane A2 Receptor (Oryctolagus cuniculus, UniProt Q6WQI8).
T1 sequence (Q6WQI8 1-233): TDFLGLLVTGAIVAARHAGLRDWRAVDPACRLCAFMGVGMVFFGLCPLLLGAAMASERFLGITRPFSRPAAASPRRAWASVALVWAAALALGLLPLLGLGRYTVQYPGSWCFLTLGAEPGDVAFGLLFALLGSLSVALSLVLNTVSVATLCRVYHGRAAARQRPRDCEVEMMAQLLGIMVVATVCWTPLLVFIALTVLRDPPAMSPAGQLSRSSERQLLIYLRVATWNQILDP
Nature of the test: Receptor binding experiment: Thromboxane A2 Receptor Binding Test ([3H]SQ29548, washed platelets). Set-up: species or system New Zealand White rabbits. As to conditions: rabbit washed platelets; [3H]SQ29548 3 nM; 60 minutes at 25° C.; read-out: Binding Inhibitory Action IC50 (converted). The protocol: Whole blood from New Zealand White rabbits was collected into a container containing ACD solution (1.175 g of sodium citrate, 0.685 g of citric acid, and 1 g of dextrose dissolved in 50 ml of distilled water) followed by centrifuging at room temperature for 10 minutes at 180 ×g to obtain platelet-rich plasma. Moreover, this platelet-rich plasma was further centrifuged at room temperature and 2800 ×g to result in sedimentation of the platelets. The platelets were resuspended in 50 mM Tris hydrochloric acid buffer solution (pH 7.2, containing […]) and again centrifuged at 4° C. for 15 minutes at 2800 ×g. This procedure was repeated twice to prepare the washed platelets, and adjusted to a final concentration of 10 mg/ml (wet weight). Tritium-labelled SQ29548 ([3H]SQ29548) was used for the TXA2 ligand. In an antagonism experiment, 20 μl of [3H]SQ29548 at a final concentration of 3 nM were added to 500 μl of a 10 mg/ml platelet suspension, together with adding 2.6 μl of the test drug dissolved in a suitable buffer. After incubating for 60 minutes at 25° C., the mixture was filtered over a glass filter using the Celherbster method, the filter was washed with 50 mM Tris hydrochloric acid buffer solution (3 ×4 ml), and radioactivity was measured with a scintillation counter to determine the amount of [3H]SQ29548 bound to the platelets. In addition, in a saturation test, 20 μl of [3H]SQ29548 were added to a final concentration of 0.1-50 nM followed by the addition of 2.6 μl of BM13505 at a final concentration of 1 μM in order to examine non-specific binding and carry out a binding experiment. The concentration of the test drug which inhibited binding of [3H]SQ29548 by 50% was determined as the IC50 value.

Regarding `COc1ccc(S(=O)(=O)N[C@@H]2[C@H]3c4cccc(OCC(=O)O)c4O[C@H]3C[C@H]2O)cc1` (racemic) [(51), (1RS, 2RS, 3aSR, 8bRS)-1-(p-methoxybenzenesulfonamido)-2-hydroxy-2,3,3a,8b-tetrahydro-1H-cyclopenta[b]benzofuran-5-yloxyacetic acid], in test [1], the negative-log IC50 (pIC50) was 7.17. The minimal effective concentration in test [2] is 0.1 µg/mL. Also, the 50% inhibitory concentration (IC50) in test [3] was 27.6 nM.
In test [1], `O=C(O)COc1cccc2c1O[C@H]1C[C@@H](O)[C@H](NS(=O)(=O)c3ccc(F)cc3)[C@@H]21` (racemic) [(53), (1RS, 2RS, 3aSR, 8bRS)-1-(p-fluorobenzenesulfonamido)-2-hydroxy-2,3,3a,8b-tetrahydro-1H-cyclopenta[b]benzofuran-5-yloxyacetic acid] showed a pIC50 of 7.48. The minimal effective concentration in test [2] came out at 0.05 µg/mL. Moreover, in test [3], the IC50 is 21 nM.
The matching figures for `O=C(O)COc1cccc2c1O[C@H]1C[C@@H](O)[C@H](NS(=O)(=O)c3ccc(Cl)cc3)[C@@H]21` (racemic) [(55), (1RS, 2RS, 3aSR, 8bRS)-1-(p-chlorobenzenesulfonamido)-2-hydroxy-2,3,3a,8b-tetrahydro-1H-cyclopenta[b]benzofuran-5-yloxy acetic acid]: 7.77, 0.1 µg/mL and 3.18 nM.
The corresponding values for `O=C(O)COc1cccc2c1O[C@H]1C[C@@H](O)[C@H](NS(=O)(=O)c3cccc(Cl)c3)[C@@H]21` (racemic) [(57), (1RS, 2RS, 3aSR, 8bRS)-1-(m-chlorobenzenesulfonamido)-2-hydroxy-2,3,3a,8b-tetrahydro-1H-cyclopenta[b]benzofuran-5-yloxyacetic acid] are 7.39, 0.01 µg/mL and 22.7 nM.
Take `O=C(O)COc1cccc2c1O[C@H]1C[C@@H](O)[C@H](NS(=O)(=O)c3ccc(Br)cc3)[C@@H]21` (racemic) [(61), (1RS, 2RS, 3aSR, 8bRS)-1-(p-bromobenzenesulfonamido)-2-hydroxy-2,3,3a,8b-tetrahydro-1H-cyclopenta[b]benzofuran-5-yloxyacetic acid]: the pIC50 in test [1] is 7.36. In addition, in test [2], the minimal effective concentration was 0.03 µg/mL. The IC50 in test [3] was 2.06 nM.
Regarding `O=C(O)COc1cccc2c1O[C@H]1C[C@@H](O)[C@H](NS(=O)(=O)c3ccc(I)cc3)[C@@H]21` (racemic) [(63), (1RS, 2RS, 3aSR, 8bRS)-1-(p-iodobenzenesulfonamido)-2-hydroxy-2,3,3a,8b-tetrahydro-1H-cyclopenta[b]benzofuran-5-yloxyacetic acid], the pIC50 in test [1] is 7.24. Also, the minimal effective concentration in test [2] stood at 0.01 µg/mL. For the same compound, the IC50 in test [3] is 22.6 nM.
The matching figures for `O=C(O)COc1cccc2c1O[C@H]1C[C@@H](O)[C@H](NS(=O)(=O)c3ccc([N+](=O)[O-])cc3)[C@@H]21` (racemic) [(68), (1RS, 2RS, 3aSR, 8bRS)-1-(p-nitrobenzenesulfonamido)-2-hydroxy-2,3,3a,8b-tetrahydro-1H-cyclopenta[b]benzofuran-5-yloxyacetic acid]: 6.85, 0.1 µg/mL and 910 nM.
In test [1], `O=C(O)COc1cccc2c1O[C@H]1C[C@@H](O)[C@H](NS(=O)(=O)c3ccc(F)cc3F)[C@@H]21` (racemic) [(70), (1RS, 2RS, 3aSR, 8bRS)-1-(2,4-difluorobenzenesulfonamido)-2-hydroxy-2,3,3a,8b-tetrahydro-1H-cyclopenta[b]benzofuran-5-yloxyacetic acid] had a negative logarithm of the IC50 (pIC50) of 7.54. Also, in test [2], the minimal effective concentration came out at 0.03 µg/mL. Moreover, the IC50 in test [3] is 49.8 nM.
Regarding `O=C(O)COc1cccc2c1O[C@H]1C[C@@H](O)[C@H](NS(=O)(=O)c3ccc(Cl)c(Cl)c3)[C@@H]21` (racemic) [(72), (1RS, 2RS, 3aSR, 8bRS)-1-(3,4-dichlorobenzenesulfonamido)-2-hydroxy-2,3,3a,8b-tetrahydro-1H-cyclopenta[b]benzofuran-5-yloxyacetic acid], the pIC50 in test [1] is 6.92. The minimal effective concentration in test [2] stood at 0.03 µg/mL. For the same compound, in test [3], the IC50 was 25.3 nM.
Consider `O=C(O)COc1cccc2c1O[C@H]1CC[C@H](NS(=O)(=O)c3ccccc3)[C@@H]21` (racemic) [(90), (1SR, 3aSR, 8bRS)-1-benzenesulfonamido-2,3,3a,8b-tetrahydro-1H-cyclopenta[b]benzofuran-5-yloxyacetic acid], for which, in test [1], the negative logarithm of the IC50 (pIC50) is 7.00. The minimal effective concentration in test [2] is 0.003 µg/mL. The IC50 in test [3] is 8.47 nM.
In test [1], `CO[C@@H]1C[C@@H]2Oc3c(OCC(=O)O)cccc3[C@@H]2[C@H]1NS(=O)(=O)c1ccccc1` (racemic) [(92), (1RS, 2RS, 3aSR, 8bRS)-1-benzenesulfonamido-2-methoxy-2,3,3a,8b-tetrahydro-1H-cyclopenta[b]benzofuran-5-yloxyacetic acid] showed a negative-log IC50 (pIC50) of 7.00. Also, in test [2], the minimal effective concentration amounted to 0.1 µg/mL. Moreover, the concentration for half-maximal inhibition (IC50) in test [3] is 57.2 nM.
The corresponding values for `O=C(O)COc1cccc2c1O[C@H]1CC[C@@H](NS(=O)(=O)c3ccccc3)[C@@H]21` (racemic) [(94), (1RS, 3aSR, 8bRS)-1-benzenesulfonamido-2,3,3a,8b-tetrahydro-1H-cyclopenta[b]benzofuran-5-yloxyacetic acid] are 7.17, 0.1 µg/mL and 16.7 nM.
With `CCOC(=O)COc1cccc2c1O[C@H]1C[C@@H](O)[C@H](NS(=O)(=O)c3ccccc3)[C@@H]21` (racemic) [(102), (1RS, 2RS, 3aSR, 8bRS)-1-benzenesulfonamido-2-hydroxy2,3,3a,8b-tetrahydro-1H-cyclopenta[b]benzofuran-5-yloxyacetic acid ethyl ester], the pIC50 in test [1] was 6.66. In addition, the minimal effective concentration in test [2] came to 0.03 µg/mL. Besides, the 50% inhibitory concentration (IC50) in test [3] is 415 nM.
`O=C(O)COc1cccc2c1O[C@H]1CC[C@H](OS(=O)(=O)c3ccccc3)[C@@H]21` (racemic) [(121), (1SR, 3aSR, 8bSR)-1-(phenylsulfonyloxy)-2,3,3a,8b-tetrahydro-1H-cyclopenta[b]benzofuran-5-yloxyacetic acid] had a negative-log IC50 (pIC50) in test [1] of 6.89. Further, the minimal effective concentration in test [2] turned out to be 0.003 µg/mL. Moreover, the concentration for half-maximal inhibition (IC50) in test [3] was 1.28 nM.
As to `Cc1ccc(S(=O)(=O)N[C@@H]2[C@H]3c4cccc(OCC(=O)O)c4O[C@H]3C[C@H]2O)cc1` (relative stereo) [(49), (1RS, 2RS, 3aSR, 8bRS)-1-(p-toluenesulfonamido)-2-hydroxy-2,3,3a,8b-tetrahydro-1H-cyclopenta[b]benzofuran-5-yloxyacetatic acid], the negative-log IC50 (pIC50) in test [1] is 7.66. Further, in test [2], the minimal effective concentration is 0.01 µg/mL. In test [3], the 50% inhibitory concentration (IC50) is 8.82 nM.
